Values after ≈ are worked out from the molar mass of the structure shown.

Common to all, as to assay type: functional
Assay [1] has as its system Klebsiella pneumoniae. As to the kind of experiment: Antibacterial activity against ESBL positive Klebsiella pneumoniae ATCC 700603 assessed as inhibition of bacterial growth by CLSI based micro broth double dilution method.
Assay [2] has as its system Klebsiella pneumoniae. Briefly: Antibacterial activity against ESBL negative Klebsiella pneumoniae 7 assessed as inhibition of bacterial growth by CLSI based micro broth double dilution method.
For assay [3], the system named is Klebsiella pneumoniae. As to the kind of experiment: Antibacterial activity against ESBL negative Klebsiella pneumoniae 16-2 assessed as inhibition of bacterial growth by CLSI based micro broth double dilution method.
In assay [4] the test system is Streptococcus pyogenes. Briefly: Antibacterial activity against erythromycin-sensitive Streptococcus pyogenes ATCC 19615 assessed as inhibition of bacterial growth by CLSI based micro broth double dilution method.
Assay [5] deals with Streptococcus pyogenes. Briefly: Antibacterial activity against erythromycin-resistant Streptococcus pyogenes 12-1 assessed as inhibition of bacterial growth by CLSI based micro broth double dilution method.
In assay [6] the test system is Enterococcus faecalis. Briefly: Antibacterial activity against vancomycin-sensitive Enterococcus faecalis […] assessed as inhibition of bacterial growth by CLSI based micro broth double dilution method.
Assay [7] has as its system Enterococcus faecalis. As to the kind of experiment: Antibacterial activity against vancomycin-sensitive Enterococcus faecalis 16-6 assessed as inhibition of bacterial growth by CLSI based micro broth double dilution method.
Assay [8] relates to Enterococcus faecalis. As to the kind of experiment: Antibacterial activity against vancomycin-resistant Enterococcus faecalis ATCC 51575 assessed as inhibition of bacterial growth by CLSI based micro broth double dilution method.
Assay [9] relates to Enterococcus faecalis. Briefly: Antibacterial activity against vancomycin-resistant Enterococcus faecalis ATCC 51299 assessed as inhibition of bacterial growth by CLSI based micro broth double dilution method.
Assay [10] concerns Streptococcus pneumoniae. As to the kind of experiment: Antibacterial activity against erythromycin-sensitive Streptococcus pneumoniae ATCC 49619 assessed as inhibition of bacterial growth by CLSI based micro broth double dilution method.
For assay [11], the system named is Streptococcus pneumoniae. Briefly: Antibacterial activity against erythromycin-resistant Streptococcus pneumoniae 12-3 assessed as inhibition of bacterial growth by CLSI based micro broth double dilution method.
Assay [12] deals with Escherichia coli. Briefly: Antibacterial activity against ESBL-negative Escherichia coli ATCC 25922 assessed as inhibition of bacterial growth by CLSI based micro broth double dilution method.
The test system of assay [13] is Escherichia coli. Briefly: Antibacterial activity against Escherichia coli 16-7 assessed as inhibition of bacterial growth by CLSI based micro broth double dilution method.
Assay [14] deals with Escherichia coli. Briefly: Antibacterial activity against ESBL-positive Escherichia coli ATCC 35218 assessed as inhibition of bacterial growth by CLSI based micro broth double dilution method.
Assay [15] deals with Staphylococcus epidermidis. Briefly: Antibacterial activity against methicillin-sensitive Staphylococcus epidermidis ATCC 12228 assessed as inhibition of bacterial growth by CLSI based micro broth double dilution method.
Assay [16] relates to Staphylococcus epidermidis. Briefly: Antibacterial activity against methicillin-sensitive Staphylococcus epidermidis 16-4 assessed as inhibition of bacterial growth by CLSI based micro broth double dilution method.
Assay [17] relates to Staphylococcus aureus. Briefly: Antibacterial activity against methicillin-sensitive Staphylococcus aureus ATCC 29213 assessed as inhibition of bacterial growth by CLSI based micro broth double dilution method.
Assay [18] relates to Staphylococcus aureus. As to the kind of experiment: Antibacterial activity against methicillin-sensitive Staphylococcus aureus 15 assessed as inhibition of bacterial growth by CLSI based micro broth double dilution method.
The test system of assay [19] is Staphylococcus aureus. Briefly: Antibacterial activity against methicillin-sensitive Staphylococcus aureus 16-1 assessed as inhibition of bacterial growth by CLSI based micro broth double dilution method.
Assay [20] has as its system Pseudomonas aeruginosa. As to the kind of experiment: Antibacterial activity against Pseudomonas aeruginosa ATCC 27853 assessed as inhibition of bacterial growth by CLSI based micro broth double dilution method.
Assay [21] relates to Pseudomonas aeruginosa. As to the kind of experiment: Antibacterial activity against Pseudomonas aeruginosa PAO1 assessed as inhibition of bacterial growth by CLSI based micro broth double dilution method.
Assay [22] has as its system Pseudomonas aeruginosa. Briefly: Antibacterial activity against Pseudomonas aeruginosa 16-11 assessed as inhibition of bacterial growth by CLSI based micro broth double dilution method.

Take `CC[C@H]1OC(=O)[C@@](C)(F)C(=O)[C@H](C)[C@@H](O[C@@H]2O[C@H](C)C[C@H](N(C)C)[C@H]2O)[C@@](C)(OC)C[C@@H](C)C(=O)[C@H](C)[C@H]2N(CCCN(C(=O)/C=C/c3ccccc3)c3ccnc4ccccc34)C(=O)O[C@]12C`: the MIC in the assay on Klebsiella pneumoniae [1] was 32 µg/mL (≈ 33.9 µM); in the assay on Klebsiella pneumoniae [2] it was more than 32 µg/mL; in the assay with Klebsiella pneumoniae [3] it was more than 32 µg/mL; in the assay on Streptococcus pyogenes [4] it was 0.5 µg/mL (≈ 0.529 µM); in the assay on Streptococcus pyogenes [5], 8 µg/mL (≈ 8.46 µM); in the assay with Enterococcus faecalis [6] it was 0.5 µg/mL (≈ 0.529 µM). In addition, the MIC in the assay with Enterococcus faecalis [7] was more than 32 µg/mL; with Enterococcus faecalis [8], more than 32 µg/mL; in the assay with Enterococcus faecalis [9], more than 32 µg/mL; in the assay on Streptococcus pneumoniae [10], not above 0.016 µg/mL; in the assay on Streptococcus pneumoniae [11], 0.5 µg/mL (≈ 0.529 µM); in the assay with Escherichia coli [12] it was more than 32 µg/mL. Further, the MIC with Escherichia coli [13] is more than 32 µg/mL; in the assay on Escherichia coli [14], more than 32 µg/mL; in assay [15], 1 µg/mL (≈ 1.06 µM); in [16] it was 1 µg/mL (≈ 1.06 µM); in the assay with Staphylococcus aureus [17], 1 µg/mL (≈ 1.06 µM); in the assay with Staphylococcus aureus [18] it was 1 µg/mL (≈ 1.06 µM). Further, the MIC in the assay with Staphylococcus aureus [19] is 0.5 µg/mL (≈ 0.529 µM); with Pseudomonas aeruginosa [20], more than 32 µg/mL; in the assay on Pseudomonas aeruginosa [21], more than 32 µg/mL; in the assay with Pseudomonas aeruginosa [22] it was more than 32 µg/mL.
Consider `CC[C@H]1OC(=O)[C@@](C)(F)C(=O)[C@H](C)[C@@H](O[C@@H]2O[C@H](C)C[C@H](N(C)C)[C@H]2O)[C@@](C)(OC)C[C@@H](C)C(=O)[C@H](C)[C@H]2N(CCCN(C(C)=O)c3ccnc4ccccc34)C(=O)O[C@]12C`, for which the MIC is 32 µg/mL (≈ 37.3 µM) with Klebsiella pneumoniae [1]; more than 32 µg/mL in the assay with Klebsiella pneumoniae [2]; more than 32 µg/mL in the assay on Klebsiella pneumoniae [3]; 0.03 µg/mL (≈ 0.035 µM) in the assay with Streptococcus pyogenes [4]; 2 µg/mL (≈ 2.33 µM) in the assay on Streptococcus pyogenes [5]; 0.06 µg/mL (≈ 0.07 µM) with Enterococcus faecalis [6]. For the same compound, the MIC is 4 µg/mL (≈ 4.67 µM) with Enterococcus faecalis [7]; 4 µg/mL (≈ 4.67 µM) with Enterococcus faecalis [8]; 4 µg/mL (≈ 4.67 µM) in the assay on Enterococcus faecalis [9]; not above 0.016 µg/mL with Streptococcus pneumoniae [10]; 0.03 µg/mL (≈ 0.035 µM) in the assay with Streptococcus pneumoniae [11]; 32 µg/mL (≈ 37.3 µM) in the assay on Escherichia coli [12]. In addition, the MIC stood at 32 µg/mL (≈ 37.3 µM) in the assay on Escherichia coli [13]; 32 µg/mL (≈ 37.3 µM) in the assay with Escherichia coli [14]; 0.06 µg/mL (≈ 0.07 µM) in [15]; 0.25 µg/mL (≈ 0.292 µM) in [16]; 0.12 µg/mL (≈ 0.14 µM) with Staphylococcus aureus [17]; 0.06 µg/mL (≈ 0.07 µM) in the assay with Staphylococcus aureus [18]. Also, the MIC in the assay with Staphylococcus aureus [19] is 0.06 µg/mL (≈ 0.07 µM); in the assay with Pseudomonas aeruginosa [20], more than 32 µg/mL; with Pseudomonas aeruginosa [21], more than 32 µg/mL; with Pseudomonas aeruginosa [22], more than 32 µg/mL.
Consider `CC[C@H]1OC(=O)[C@@](C)(F)C(=O)[C@H](C)[C@@H](O[C@@H]2O[C@H](C)C[C@H](N(C)C)[C@H]2O)[C@@](C)(OC)C[C@@H](C)C(=O)[C@H](C)[C@H]2N(CCCN(Cc3ccccc3)c3cnc4ccccc4c3)C(=O)O[C@]12C`, for which the MIC was 32 µg/mL (≈ 35.4 µM) in the assay on Klebsiella pneumoniae [1]; 8 µg/mL (≈ 8.84 µM) in the assay with Klebsiella pneumoniae [2]; more than 32 µg/mL in the assay with Klebsiella pneumoniae [3]; 0.12 µg/mL (≈ 0.133 µM) in the assay with Streptococcus pyogenes [4]; 8 µg/mL (≈ 8.84 µM) with Streptococcus pyogenes [5]; 0.5 µg/mL (≈ 0.552 µM) in the assay with Enterococcus faecalis [6]. Also, the MIC was more than 32 µg/mL in the assay on Enterococcus faecalis [7]; more than 32 µg/mL with Enterococcus faecalis [8]; more than 32 µg/mL in the assay on Enterococcus faecalis [9]; 0.03 µg/mL (≈ 0.0331 µM) in the assay with Streptococcus pneumoniae [10]; 0.25 µg/mL (≈ 0.276 µM) in the assay on Streptococcus pneumoniae [11]; more than 32 µg/mL in the assay on Escherichia coli [12]. The MIC is more than 32 µg/mL with Escherichia coli [13]; more than 32 µg/mL in the assay with Escherichia coli [14]; 0.25 µg/mL (≈ 0.276 µM) in assay [15]; 1 µg/mL (≈ 1.1 µM) in assay [16]; 1 µg/mL (≈ 1.1 µM) in the assay on Staphylococcus aureus [17]; 0.5 µg/mL (≈ 0.552 µM) in the assay with Staphylococcus aureus [18]. Also, the MIC is 0.5 µg/mL (≈ 0.552 µM) in the assay on Staphylococcus aureus [19], more than 32 µg/mL with Pseudomonas aeruginosa [20], more than 32 µg/mL in the assay with Pseudomonas aeruginosa [21] and more than 32 µg/mL with Pseudomonas aeruginosa [22].

As usually defined, the MIC is the least concentration at which growth counts as inhibited.

The record behind these values is ChEMBL document CHEMBL5236651, “Synthesis and antibacterial activity of novel 2‑fluoro ketolide antibiotics with 11,12‑quinoylalkyl side chains” (2023).
